Test [1] concerns the target T1, HDAC2 (Homo sapiens, UniProt Q92769). Briefly: biolayer interferometry, […] global fit. It is filed as binding.
For test [2], the target named is T2, HDAC8 (Homo sapiens, UniProt Q9BY41).
T2 sequence (Q9BY41 1-377): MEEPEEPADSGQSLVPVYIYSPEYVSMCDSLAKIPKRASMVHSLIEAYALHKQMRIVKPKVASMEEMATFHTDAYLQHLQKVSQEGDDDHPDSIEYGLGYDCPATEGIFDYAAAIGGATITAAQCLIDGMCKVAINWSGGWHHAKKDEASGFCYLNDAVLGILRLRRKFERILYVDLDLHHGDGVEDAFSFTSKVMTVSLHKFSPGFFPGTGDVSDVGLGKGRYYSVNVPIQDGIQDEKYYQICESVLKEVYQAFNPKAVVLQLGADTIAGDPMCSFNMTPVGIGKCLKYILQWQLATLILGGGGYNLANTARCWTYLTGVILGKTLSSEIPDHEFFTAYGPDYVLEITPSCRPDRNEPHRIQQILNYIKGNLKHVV
Nature of the test: RapidFire mass spectrometry deacetylase assay. It is filed as biochemical.

Test [3] addresses T2, HDAC8. Briefly: biolayer interferometry, […] global fit. It is filed as binding. (In general: In BLI a coated tip is dipped into the sample, and binding shifts an interference pattern.)
The target in test [4] is T3, HDAC1 (Homo sapiens, UniProt Q13547). Nature of the test: biolayer interferometry, […] global fit. It is filed as binding.
For test [5], the target named is T3, HDAC1. Briefly: biochemical. Particulars: read-out: ka (1/Ms).
Test [6] has as its target T1, HDAC2. Briefly: biochemical. Particulars: read-out: ka (1/Ms).
Test [7] has as its target T2, HDAC8. Nature of the test: biochemical. The note with it: read-out: ka (1/Ms).
Test [8] has as its target T3, HDAC1. Briefly: biochemical. The note with it: read-out: kdis (1/s).
Test [9] concerns the target T2, HDAC8. Nature of the test: biochemical. The note with it: read-out: kdis (1/s).
Test [10] has as its target T1, HDAC2. Briefly: biochemical. Particulars: read-out: kdis (1/s).
For test [11], the target named is T3, HDAC1. Briefly: biochemical.

Molecules are shown by their SMILES.

From publication doi:10.1101/2020.03.02.973636v3 (biorxiv, 2020) come the findings set out here.

T3 sequence (Q13547 whole entry): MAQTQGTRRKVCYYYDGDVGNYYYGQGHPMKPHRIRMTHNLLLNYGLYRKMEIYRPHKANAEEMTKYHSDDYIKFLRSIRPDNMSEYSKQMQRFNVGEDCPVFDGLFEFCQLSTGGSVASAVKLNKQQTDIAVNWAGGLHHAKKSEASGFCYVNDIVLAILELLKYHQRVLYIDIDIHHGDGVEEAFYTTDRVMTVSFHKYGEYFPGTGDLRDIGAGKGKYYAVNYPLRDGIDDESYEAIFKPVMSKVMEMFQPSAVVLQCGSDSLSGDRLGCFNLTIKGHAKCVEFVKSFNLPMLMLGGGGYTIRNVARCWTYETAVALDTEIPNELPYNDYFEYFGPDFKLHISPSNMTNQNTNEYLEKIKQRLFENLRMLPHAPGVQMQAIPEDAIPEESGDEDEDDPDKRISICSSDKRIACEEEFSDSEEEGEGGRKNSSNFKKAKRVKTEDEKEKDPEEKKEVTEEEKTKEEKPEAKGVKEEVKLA
T1 sequence (Q92769 whole entry): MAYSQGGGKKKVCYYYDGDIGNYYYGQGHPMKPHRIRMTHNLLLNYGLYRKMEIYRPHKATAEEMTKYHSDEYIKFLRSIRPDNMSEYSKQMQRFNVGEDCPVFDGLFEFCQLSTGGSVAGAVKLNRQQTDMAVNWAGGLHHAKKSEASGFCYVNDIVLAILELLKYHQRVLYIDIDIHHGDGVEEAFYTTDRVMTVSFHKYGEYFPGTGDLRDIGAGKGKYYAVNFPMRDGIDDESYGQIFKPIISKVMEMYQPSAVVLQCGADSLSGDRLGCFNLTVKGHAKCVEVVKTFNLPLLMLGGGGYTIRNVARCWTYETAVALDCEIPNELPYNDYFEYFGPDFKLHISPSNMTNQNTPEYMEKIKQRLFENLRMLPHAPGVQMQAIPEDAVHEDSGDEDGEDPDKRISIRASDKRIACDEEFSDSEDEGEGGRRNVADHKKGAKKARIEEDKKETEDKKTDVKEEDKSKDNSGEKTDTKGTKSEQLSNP

In the case of `O=C(c1cc(O)c(O)c(O)c1)c1ccc(O)c(O)c1O` [Exifone, 2,3,3’,4,4’,5’-hexahydroxybenzophenone], the Kd at HDAC2 [1] turned out to be 142.8 ± 1 nM; at HDAC8 [3] it was 257.9 ± 1.7 nM; on HDAC1 [4] it was 94.9 ± 0.8 nM. Moreover, the EC50 was determined as 270 nM at HDAC8 [2] and 160 nM on HDAC1 [11]. Further, the kon is 15500 M⁻¹ s⁻¹ on HDAC1 [5], 8740 M⁻¹ s⁻¹ on HDAC2 [6] and 5050 M⁻¹ s⁻¹ at HDAC8 [7]. For the same compound, the results for the koff on HDAC1 [8], at HDAC8 [9] and on HDAC2 [10] were 0.00134 s⁻¹, 0.0013 s⁻¹ and 0.00125 s⁻¹, respectively.

One may read the Kd as the concentration at which binding is half-saturated. The low end stands for a tighter complex, the high end for a looser complex. Usually EC50 stands for the concentration giving half of the maximal effect.
